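Dose response: 5 concentrations. Exposure: 48 h. Format: 96-well plates. Endpoint: linear interpolation; highest concentration if not reached. GI50 marks 50% less growth.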 Activity calls are given as the source filed them. Cut-off read from the data, not from the text of the source: active = GI50 up to about 1.1 µM and inactive = higher. *1 amine or outer side, *2 acyl side, *3 side chain or, on linkers, in order; H or OH if unused. Where a SMILES comes first, the peptide text is derived from it. [ ]: non-standard residue; d: D form. The star is where a group is joined. ξ: configuration not given here. X53 = CC(C)C[C@H](N[*:1])C1=N[C@H](C(=O)[*:2])CS1; Ile(3ξ) = CCC(C)[C@H](N)C(=O)O; Allyl(1,1-Me2) = C=CC(C)(C)*
What was measured:
Test in all cases: growth of human tumour cells (NCI), 48 h
A549 = system: A549
CAKI-1 = system: CAKI-1
CCRF-CEM = system: CCRF-CEM
COLO 205 = system: COLO 205
HCC 2998 = system: HCC 2998
HL-60 = system: HL-60
HOP-92 = system: HOP-92
K562 = system: K562
M14 = system: M14
MCF7 = system: MCF7
NCI-H226 = system: NCI-H226
OVCAR-3 = system: OVCAR-3
OVCAR-4 = system: OVCAR-4
OVCAR-8 = system: OVCAR-8
SF-295 = system: SF-295
SK-MEL-28 = system: SK-MEL-28
SNB-75 = system: SNB-75
TK-10 = system: TK-10
U-251 = system: U-251
UACC-62 = system: UACC-62

Row | Compound | GI50 (A549) | GI50 (CAKI-1) | GI50 (CCRF-CEM) | GI50 (COLO 205) | GI50 (HCC 2998) | GI50 (HL-60) | GI50 (HOP-92) | GI50 (K562) | GI50 (M14) | GI50 (MCF7) | GI50 (NCI-H226) | GI50 (OVCAR-3) | GI50 (OVCAR-4) | GI50 (OVCAR-8) | GI50 (SF-295) | GI50 (SK-MEL-28) | GI50 (SNB-75) | GI50 (TK-10) | GI50 (U-251) | GI50 (UACC-62)
1 | C/C(=N/NC(=S)N1CC2CCC(CC2)C1)c1cnccn1 | < 0.01 µM (active) | < 0.01 µM (active) | < 0.01 µM (active) | < 0.01 µM (active) | 0.218 µM (active) | < 0.01 µM (active) | 0.619 µM (active) | < 0.01 µM (active) | < 0.0104 µM (active) | < 0.01 µM (active) | < 0.01 µM (active) | < 0.01 µM (active) | 0.0264 µM (active) | < 0.01 µM (active) | 0.0551 µM (active) | 1.64 µM (inactive) | 0.828 µM (active) | 0.67 µM (active) | < 0.01 µM (active) | < 0.023 µM (active)
2 | CCCCCCC(=O)OC[n+]1cccc(-c2c(COC(=O)NC(C)C)c(COC(=O)NC(C)C)c3n2CCC3)c1 | 60 µM (inactive) | 11 µM (inactive) | 9.55 µM (inactive) | 51.4 µM (inactive) | > 100 µM (inactive) | 8.57 µM (inactive) | 24.9 µM (inactive) | 31.6 µM (inactive) | 39.2 µM (inactive) | 27.6 µM (inactive) | 60.7 µM (inactive) | 41.4 µM (inactive) | 33.7 µM (inactive) | 34.4 µM (inactive) | > 62.2 µM (inactive) | > 100 µM (inactive) | 35.4 µM (inactive) | 56.2 µM (inactive) | 29.4 µM (inactive) | 20 µM (inactive)
3 | N=c1sc2ccccc2n1CC[S-].c1ccc2c(c1)sc1[n+]2CCS1 | 16.9 µM (inactive) | 16.9 µM (inactive) | 9.06 µM (inactive) | 14.3 µM (inactive) | 17.1 µM (inactive) | 22.5 µM (inactive) | 17 µM (inactive) | 16.7 µM (inactive) | 16.1 µM (inactive) | 12.9 µM (inactive) | 16.7 µM (inactive) | 19.3 µM (inactive) | 16.4 µM (inactive) | 17.1 µM (inactive) | 17.4 µM (inactive) | 18.7 µM (inactive) | 41.5 µM (inactive) | 22.8 µM (inactive) | 15.5 µM (inactive) | 14 µM (inactive)
4 | COC(=O)c1c2c(cc3c1CC1(Cc4ccccc4C1=O)C3)CCC2 (stereo not drawn) | 20.7 µM (inactive) | 10.7 µM (inactive) | 28.2 µM (inactive) | 3.52 µM (inactive) | 36.6 µM (inactive) | 16 µM (inactive) | 23 µM (inactive) | 8.34 µM (inactive) | 31.3 µM (inactive) | 43.8 µM (inactive) | 2.58 µM (inactive) | 19.5 µM (inactive) | 36.1 µM (inactive) | 44.1 µM (inactive) | 55.6 µM (inactive) | 93.3 µM (inactive) | 19.4 µM (inactive) | 51.3 µM (inactive) | 56.5 µM (inactive) | 
5 | Fc1ccc(C(OCCN2CC3CCC(C2)N3CCCc2ccccc2)c2ccc(F)cc2)cc1 | 8.15 µM (inactive) | 6.22 µM (inactive) | 2.71 µM (inactive) | 1.41 µM (inactive) | 2.87 µM (inactive) | 3.08 µM (inactive) | 8.05 µM (inactive) | 2 µM (inactive) | 2.48 µM (inactive) | 3.39 µM (inactive) | 3.94 µM (inactive) | 5.92 µM (inactive) | 3.94 µM (inactive) | 2.3 µM (inactive) | 3.15 µM (inactive) | 8.99 µM (inactive) | 3.37 µM (inactive) | 11.7 µM (inactive) | 4.54 µM (inactive) | 9.51 µM (inactive)
6 | CCOC(=O)C1(C#N)C(=O)c2cc[n+](CC[n+]3ccc4c(c3)C(=O)C(C#N)(C(=O)OCC)C4=O)cc2C1=O (stereo not drawn) | > 100 µM (inactive) | > 100 µM (inactive) | > 100 µM (inactive) | > 10 µM (inactive) | > 100 µM (inactive) | 83.4 µM (inactive) | > 100 µM (inactive) | 86.1 µM (inactive) | > 100 µM (inactive) | > 100 µM (inactive) | > 100 µM (inactive) | 25.4 µM (inactive) | > 100 µM (inactive) | > 100 µM (inactive) | > 100 µM (inactive) | > 100 µM (inactive) | > 100 µM (inactive) |  | > 100 µM (inactive) | > 100 µM (inactive)
7 | Nc1ccn(C2OC(COP(=O)(O)O)C(O)C2O)c(=O)n1 (stereo not drawn) | 0.422 µM (active) | 14.4 µM (inactive) | < 0.01 µM (active) | > 55.3 µM (inactive) | > 100 µM (inactive) | 0.205 µM (active) | 17.8 µM (inactive) | 24 µM (inactive) | 0.982 µM (active) | 1.31 µM (inactive) | 3.18 µM (inactive) | > 100 µM (inactive) | > 100 µM (inactive) | 2.47 µM (inactive) | 33 µM (inactive) |  | 28.8 µM (inactive) | > 100 µM (inactive) | 14.3 µM (inactive) | 10.9 µM (inactive)
8 | O=C1C=C(Nc2cccnc2)c2ccccc2C1=O | 3.65 µM (inactive) | 4.58 µM (inactive) | 15.2 µM (inactive) | 21.6 µM (inactive) | 11.2 µM (inactive) | 3.31 µM (inactive) | 16.1 µM (inactive) | 1.76 µM (inactive) | 1.91 µM (inactive) | 2.64 µM (inactive) | 25.6 µM (inactive) | 2.72 µM (inactive) | 8.87 µM (inactive) | 7.55 µM (inactive) | 2.92 µM (inactive) | 5.58 µM (inactive) | 1.51 µM (inactive) | 19.1 µM (inactive) | 9.25 µM (inactive) | 1.68 µM (inactive)
9 | CCN(CCCl)c1cc(CN(C)C)cc(NC(=O)c2cc(C(=O)Nc3cc(CN(C)C)cc(N(CC)CCCl)c3)n(C)n2)c1 | 0.136 µM (active) | 0.557 µM (active) | < 0.01 µM (active) | 0.721 µM (active) | 0.755 µM (active) | 0.0115 µM (active) | 1.11 µM (active) | 0.124 µM (active) | 0.381 µM (active) | < 0.01 µM (active) | 1.43 µM (inactive) |  | 0.485 µM (active) | 0.143 µM (active) | 0.78 µM (active) | 1.48 µM (inactive) | 0.271 µM (active) | 2.69 µM (inactive) | 0.0923 µM (active) | 0.219 µM (active)
10 | C=CC(C)(C)OC[C@@H]1NC(=O)CNC(=O)[C@@H]2CCCN2C(=O)[C@H](C(C)CC)NC(=O)[C@@H]2CSC(=N2)[C@H](CC(C)C)NC1=O (stereo partly drawn) (cyclo(GS(Allyl(1,1-Me2))[X53][Ile(3ξ)]P)) | 80 µM (inactive) | 75 µM (inactive) | 30.9 µM (inactive) | > 100 µM (inactive) | 83 µM (inactive) | 29.2 µM (inactive) | 37.3 µM (inactive) | 41.7 µM (inactive) | > 100 µM (inactive) | 40.6 µM (inactive) | > 100 µM (inactive) | 47.9 µM (inactive) | 22.3 µM (inactive) | 69.3 µM (inactive) | 45.2 µM (inactive) |  | 34.5 µM (inactive) | > 100 µM (inactive) | > 100 µM (inactive) | 72.3 µM (inactive)
11 | CC(C)N1CCN(c2ccc(OCC3COC(Cn4cncn4)(c4ccc(Cl)cc4Cl)O3)cc2)CC1 (stereo not drawn) [TERCONAZOLE] | > 35.8 µM (inactive) | 17.3 µM (inactive) | 11.5 µM (inactive) | 1.9 µM (inactive) | 9.18 µM (inactive) | 15.4 µM (inactive) | 13.6 µM (inactive) | 3.47 µM (inactive) |  | 13.2 µM (inactive) | 15 µM (inactive) | 13.5 µM (inactive) | 17.2 µM (inactive) | 17.3 µM (inactive) | 12.8 µM (inactive) | 4.63 µM (inactive) | 12.8 µM (inactive) | 9.62 µM (inactive) | 12.9 µM (inactive) | 2.34 µM (inactive)
12 | S=C1NCCN1C(=S)NC1CCCCC1 | 27 µM (inactive) | 25.4 µM (inactive) | 45.2 µM (inactive) | 27 µM (inactive) | 20.9 µM (inactive) | 40.7 µM (inactive) | 24.8 µM (inactive) | 36.8 µM (inactive) | 22.1 µM (inactive) | 43.1 µM (inactive) | 22.2 µM (inactive) | 31.3 µM (inactive) | 19.3 µM (inactive) | 47.6 µM (inactive) | 37.2 µM (inactive) | 29 µM (inactive) | 19 µM (inactive) | 27.6 µM (inactive) | 37 µM (inactive) | 43.7 µM (inactive)
13 | COc1ccc(-c2oc3c(OC)c(OC)cc(O)c3c(=O)c2OC)cc1 | > 100 µM (inactive) | > 100 µM (inactive) | > 100 µM (inactive) | > 100 µM (inactive) | > 100 µM (inactive) | > 100 µM (inactive) | 42.8 µM (inactive) | > 100 µM (inactive) | > 100 µM (inactive) | > 100 µM (inactive) | > 100 µM (inactive) | > 100 µM (inactive) | > 100 µM (inactive) | > 100 µM (inactive) | > 100 µM (inactive) | > 100 µM (inactive) | > 10 µM (inactive) | > 100 µM (inactive) | 70.8 µM (inactive) | > 100 µM (inactive)
14 | Cc1nc2c(o1)C(=O)c1ccccc1/C2=N/C1CCCCC1N (stereo not drawn) | 1.46 µM (inactive) | 1.71 µM (inactive) | 0.247 µM (active) | 1.66 µM (inactive) | 1.65 µM (inactive) | 0.2 µM (active) | 0.483 µM (active) | 0.235 µM (active) | 0.425 µM (active) | 0.265 µM (active) | 1.97 µM (inactive) | 0.249 µM (active) | 0.308 µM (active) | 0.274 µM (active) |  | 0.166 µM (active) | 0.206 µM (active) | 1.98 µM (inactive) | 0.312 µM (active) | 0.169 µM (active)
